Like-named read-outs stand apart in the source and are kept apart here. Where no end group is shown, it is not given here.
How the values were obtained:
[1] = biological target: T1, human MC-4R (Homo sapiens, UniProt P32245); experiment: Biological Assay: inhibition of AgRP functional interaction with MC-4R in presence of αMSH (cAMP production); format: cell-based; settings: HEK293 cells expressing human MC-4R, AgRP83-132 and αMSH present
T1 construct: expressed in transfected cells
Summary of the method: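 HEK293 cells stably expressing human MC-4R (20,000/well) in EBSS/HEPES pH 7.4 with 0.5 mM IBMX. Compounds preincubated 30 min at room temperature with human AgRP83-132, then cells added and stimulated with αMSH 30 min at 37 °C. Intracellular cAMP measured after lysis; inhibition of AgRP seen as increased cAMP.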

[2] = rat, in vivo, po, 5 mg/kg; for Plasma:Brain Ratio: male, Sprague Dawley, 2 h
Procedure: (§2) Pharmacokinetic screening in rats was performed on various compounds to measure brain to plasma ratio at 2 hour time point. […] The parameters for the pharmacokinetic protocol were as follows.
Amount of compound: 5 mg/kg
(§3) Species: Rat; Strain: Sprague Dawley; Sex: Male
Diet Status: Overnight fasting
(§4) Number of Animals (n) for each time point: 2
(§5) Formulation: 0.1% CMC, 0.25% Tween 80 in distilled water
(§6) Each formulation was administered once by oral gavage using a gavage needle (18G-3, BrainTree Scientific, INC, USA) attached to a syringe. The dose volume was 5 mL/kg for all animals. The actual volume administered to each animal was calculated and adjusted based on the most recent body weight.
(§7) Blood samples (approximately 300 μL whole blood) was collected from each animal via tail vein except for terminal blood samples. Terminal blood samples were collected via cardiac puncture. All samples were collected into tubes containing lithium heparin (Multivette 600 LH-Gel, Sarstedt, Newton, N.C., USA). Following collection, the tubes were placed in refrigerator (maximum 30 minutes) or until centrifugation under refrigeration (at 2 to 8° C.) at 5000 g for 7 minutes. Each harvested plasma sample was then transferred into 1.2 mL polypropylene tubes, on the 96-Well Plate according to the 96-Well Plate plasma sample map and kept in freezer. Plasma samples were then analyzed for test substances.
(§8) Brain samples were collected immediately after the rats were euthanised at designated time points. Brain samples were rinsed with saline, blotted dry, and weighed. Brain samples were placed into individual containers and kept in freezer (−20° C.). Brain samples were then analyzed for test articles.
(§9) After analysis, all the plasma results were reported as ng/mL and brain sample results are reported as ng/g.

[3] = in vivo; settings: male, Sprague Dawley, rat, po, 5 mg/kg
Procedure: as §2
Amount of compound: 5 mg/kg
as §3
Diet Status: Overnight fasting
as §4, §5, §6, §7, §8, §9

[4] = Stability in Liver Microsomes (human); format: in vitro ADME; settings: 1 μM, 0.5 mg protein/mL, NADPH, 60 minutes, 37° C., pH 7.4
Procedure: (§1) Various compounds were tested for their stability in human, monkey, dog, rat, and mouse liver microsomes. At a final concentration of 1 μM, compounds were incubated with either human, monkey, dog, rat, or mouse liver microsomes (0.5 mg protein/mL) in the presence of an NADPH-solution for 60 minutes at 37° C., pH 7.4 in phosphate buffer. Incubations were performed in duplicate. Reactions were terminated by the addition of methanol. The incubation solution was vortexed and transferred into a 96-well plate. The plate was sealed and centrifuged at approximately 3500 rpm for approximately 10 minutes. After centrifugation, the plate was loaded into 96-well plate autosampler and analyzed by LC/MS. Values are reported as percent of compound remaining after 1 hour.

[5] = Stability in Liver Microsomes (monkey); format: in vitro ADME; settings: 1 μM, 0.5 mg protein/mL, NADPH, 60 minutes, 37° C., pH 7.4
Procedure: as §1

[6] = Stability in Liver Microsomes (dog); format: in vitro ADME; settings: 1 μM, 0.5 mg protein/mL, NADPH, 60 minutes, 37° C., pH 7.4
Procedure: as §1

[7] = Stability in Liver Microsomes (rat); format: in vitro ADME; settings: 1 μM, 0.5 mg protein/mL, NADPH, 60 minutes, 37° C., pH 7.4
Procedure: as §1

[8] = Stability in Liver Microsomes (mouse); format: in vitro ADME; settings: 1 μM, 0.5 mg protein/mL, NADPH, 60 minutes, 37° C., pH 7.4
Procedure: as §1

[9] = Pharmacokinetic screening in rats (plasma and brain); settings: rat, 5 mg/kg PO; for concentration at 2 h: male, Sprague Dawley, po, 5 mg/kg, 2 hour time point; for Brain - 24 hours AUC (h * ng/g): 24 hour study
Procedure: as §2
Amount of compound: 5 mg/kg
as §3
Diet Status: Overnight fasting
as §4, §5, §6, §7, §8, §9

[10] = test system: adult male Sprague Dawley rats; experiment: Feeding Study (icv AgRP, food intake and body weight); format: in vivo, Rat
Procedure: 27 adult male Sprague Dawley rats (Charles River Laboratories) were implanted with right lateral cerebral ventricular cannulas and allowed to recover for one week. After one week, animals were then randomized into 4 groups that were matched for food intake and body weight: water gavage-icv saline (n=6); Example 7 gavage-icv saline (n=7); water gavage-icv AgRP (n=7); Example 7 gavage-icv AgRP (n=7). Water or Example 7 (30 mg/kg) was administered at by oral gavage followed by icv injection of either saline or 0.2 nmol human AgRP 83-132. AgRP stimulated food intake and body weight gain over the next 24 h compared to saline controls. Both of these effects of AgRP were blocked by injection administration of Example 7.
On day 2 a second dose of Example 7 (30 mg/kg) or water was administered by oral gavage. On day 3, water or Example 7 (30 mg/kg) was administered for the third and final time by oral gavage followed by icv injection of either saline or 0.2 nmol human AgRP83-132. Food intake and body weight were monitored daily and animals were sacrificed on day 5.

[11] = read-out: Average EC50 (nM) in Biological Assay
[12] = plasma, Plasma - 2 hours (ng/mL)
[13] = 0.2 nmol icv, water gavage, next 24 h

T1 sequence (P32245 whole entry): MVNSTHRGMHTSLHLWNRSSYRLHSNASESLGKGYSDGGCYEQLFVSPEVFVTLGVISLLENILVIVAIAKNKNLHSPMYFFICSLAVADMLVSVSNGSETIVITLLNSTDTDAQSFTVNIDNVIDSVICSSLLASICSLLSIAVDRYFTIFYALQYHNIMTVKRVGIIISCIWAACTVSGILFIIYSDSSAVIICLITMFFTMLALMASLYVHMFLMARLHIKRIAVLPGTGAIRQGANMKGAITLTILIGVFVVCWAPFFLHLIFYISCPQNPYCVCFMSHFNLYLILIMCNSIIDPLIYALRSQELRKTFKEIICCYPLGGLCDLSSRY

CCc1ccc(CN(CCC(=O)[O-])c2nc(C3CCC(C)CC3)cs2)s1.[Na+] (stereo not shown) [Example 5, Sodium; 3-{(5-ethyl-thiophen-2-ylmethyl)-[4-(4-methyl-cyclohexyl)-thiazol-2-yl]-amino}-propionate]
EC50 [1, 11]: 241 nM
Plasma:Brain Ratio [2]: 2.6:1
concentration at 2 h ([3]; Brain - 2 hours (ng/g)): 1460 ng/g
concentration at 2 h ([3]; Plasma - 2 hours (ng/mL)): 3780 ng/mL

Cc1ccc(CN(CCC(=O)[O-])c2nc([C@H]3CC[C@H](C(C)C)CC3)cs2)s1.[Na+] [Example 9, Sodium; 3-[[4-(4-trans-isopropyl-cyclohexyl)-thiazol-2-yl]-(5-methyl-thiophen-2-ylmethyl)-amino]-propionate]
EC50 [1, 11]: 274 nM
Stability in Liver Microsomes (% remaining after 1 hour incubation) Human [4]: 82%
Stability in Liver Microsomes (% remaining after 1 hour incubation) Monkey [5]: 74%
Stability in Liver Microsomes (% remaining after 1 hour incubation) Dog [6]: 92%
Stability in Liver Microsomes (% remaining after 1 hour incubation) Rat [7]: 66%
Stability in Liver Microsomes (% remaining after 1 hour incubation) Mouse [8]: 69%
Plasma - 2 hours [2]: 3062 ng/mL

Cc1cc(CN(CCC(=O)O)c2nc(C3CCC(C(C)(C)C)CC3)cs2)c(C)s1 (stereo not shown) [Example 25, 3-[[4-(4-tert-Butyl-cyclohexyl)-thiazol-2-yl]-(2,5-dimethyl-thiophen-3-ylmethyl)-amino]-propionic acid]
EC50 [1, 11]: 80 nM
Stability in Liver Microsomes (% remaining after 1 hour incubation) Human [4]: 99%
Stability in Liver Microsomes (% remaining after 1 hour incubation) Monkey [5]: 77%
Stability in Liver Microsomes (% remaining after 1 hour incubation) Dog [6]: 69%
Stability in Liver Microsomes (% remaining after 1 hour incubation) Rat [7]: 69%
Stability in Liver Microsomes (% remaining after 1 hour incubation) Mouse [8]: 81%
concentration at 2 h ([9]; brain, Brain - 2 hours (ng/g)): 552 ng/g
concentration at 2 h [9, 12]: 10500 ng/mL
Brain - 24 hours AUC (h * ng/g) [9]: +++ (values between 20,000 and 10,000 h*ng/g)

Cc1cc(CN(CCC(=O)O)c2nc(C3CCC(C(C)C)CC3)cs2)c(C)s1 (stereo not shown) [Example 26, 3-{(2,5-Dimethyl-thiophen-3-ylmethyl)-[4-(4-isopropyl-cyclohexyl)-thiazol-2-yl]-amino}-propionic acid]
EC50 ([1]; Average EC50 (nM) in Biological Assay): 276 nM
Stability in Liver Microsomes (% remaining after 1 hour incubation) Human [4]: 79%
Stability in Liver Microsomes (% remaining after 1 hour incubation) Monkey [5]: 67%
Stability in Liver Microsomes (% remaining after 1 hour incubation) Dog [6]: 72%
Stability in Liver Microsomes (% remaining after 1 hour incubation) Rat [7]: 66%
Stability in Liver Microsomes (% remaining after 1 hour incubation) Mouse [8]: 71%
concentration at 2 h ([9]; brain, Brain - 2 hours (ng/g)): 942 ng/g
concentration at 2 h [9, 12]: 6260 ng/mL
Brain - 24 hours AUC (h * ng/g) [9]: +++ (values between 20,000 and 10,000 h*ng/g)

Cc1ccc(CN(CCC(=O)O)c2nc([C@H]3CC[C@H](c4ccccc4)CC3)cs2)s1 [Example 38, Sodium; 3-{(5-methyl-thiophen-2-ylmethyl)-[4-(trans-4-phenyl-cyclohexyl)-thiazol-2-yl]-amino}-propionate]
EC50 [1, 11]: 145 nM
Stability in Liver Microsomes (% remaining after 1 hour incubation) Human [4]: 71%
Stability in Liver Microsomes (% remaining after 1 hour incubation) Monkey [5]: 70%
Stability in Liver Microsomes (% remaining after 1 hour incubation) Dog [6]: 93%
Stability in Liver Microsomes (% remaining after 1 hour incubation) Rat [7]: 90%
Stability in Liver Microsomes (% remaining after 1 hour incubation) Mouse [8]: 99%
concentration at 2 h [9, 12]: 8400 ng/mL
Brain - 24 hours AUC (h * ng/g) [9]: ++++ (values above 20,000 h*ng/g)

CCc1ccc(CN(CCC(=O)[O-])c2nc(C3CCC(c4ccccc4)CC3)cs2)s1.[Na+] (stereo not shown) [Example 39, Sodium; 3-{(5-ethyl-thiophen-2-ylmethyl)-[4-(4-phenyl-cyclohexyl)-thiazol-2-yl]-amino}-propionate]
EC50 [1, 11]: 275 nM
Plasma:Brain Ratio [2]: 4.0:1
concentration at 2 h ([3]; Brain - 2 hours (ng/g)): 1910 ng/g
concentration at 2 h ([3]; Plasma - 2 hours (ng/mL)): 7620 ng/mL

Cc1ccc(CN(CCC(=O)[O-])c2nc(C3(C)CCC(C)CC3)cs2)s1.[Na+] (stereo not shown) [Example 46, Sodium; 3-[[4-(1,4-dimethyl-cyclohexyl)-thiazol-2-yl]-(5-methyl-thiophen-2-ylmethyl)-amino]-propionate]
EC50 [1, 11]: 76 nM
Plasma:Brain Ratio [2]: 1.9:1
concentration at 2 h ([3]; Brain - 2 hours (ng/g)): 536 ng/g
concentration at 2 h ([3]; Plasma - 2 hours (ng/mL)): 1040 ng/mL

CC(C)c1ccc(-c2csc(N(CCC(=O)[O-])Cc3cccs3)n2)cc1.[Na+] [Reference Compound A, Sodium 3-{[4-(4-isopropyl-phenyl)-thiazol-2-yl]-thiophen-2-ylmethyl-amino}-propionate, reference compound]
Stability in Liver Microsomes (% remaining after 1 hour incubation) Human [4]: 40%
Stability in Liver Microsomes (% remaining after 1 hour incubation) Monkey [5]: 2%
Stability in Liver Microsomes (% remaining after 1 hour incubation) Dog [6]: 2%
Stability in Liver Microsomes (% remaining after 1 hour incubation) Rat [7]: 54%
Stability in Liver Microsomes (% remaining after 1 hour incubation) Mouse [8]: 52%
concentration at 2 h ([9]; brain, Brain - 2 hours (ng/g)): 1140 ng/g
concentration at 2 h [9, 12]: 3850 ng/mL
Brain - 24 hours AUC (h * ng/g) [9]: + (values less than 5,000 h*ng/g)

O=C([O-])CCN(Cc1cccs1)c1nc(-c2ccc(-c3ccccc3)cc2)cs1.[Na+] [Reference Compound B, Sodium 3-[(4-biphenyl-4-yl-thiazol-2-yl)-thiophen-2-ylmethylamino]-propionate, reference compound]
Stability in Liver Microsomes (% remaining after 1 hour incubation) Human [4]: 82%
Stability in Liver Microsomes (% remaining after 1 hour incubation) Monkey [5]: 64%
Stability in Liver Microsomes (% remaining after 1 hour incubation) Dog [6]: 95%
Stability in Liver Microsomes (% remaining after 1 hour incubation) Rat [7]: 91%
Stability in Liver Microsomes (% remaining after 1 hour incubation) Mouse [8]: 99%
Plasma:Brain Ratio [2]: 1.5:1
concentration at 2 h ([3]; Brain - 2 hours (ng/g)): 2110 ng/g
concentration at 2 h ([3]; Plasma - 2 hours (ng/mL)): 3080 ng/mL

C[C@H]1CC[C@H](Oc2ccc(-c3csc(N(CCC(=O)[O-])Cc4cccs4)n3)cc2)CC1.[Na+] [Reference Compound C, Sodium 3-({4-[4-(trans-4-methyl-cyclohexyloxy)-phenyl]-thiazol-2-yl}-thiophen-2-ylmethyl-amino)-propionate, reference compound]
Plasma:Brain Ratio [2]: 2.0:1
concentration at 2 h ([3]; Brain - 2 hours (ng/g)): 1240 ng/g
concentration at 2 h ([3]; Plasma - 2 hours (ng/mL)): 2460 ng/mL

AgRP: AgRP83-132 (human, Phoenix Pharma, cat no. 003-53), Agouti related protein fragment given icv (SSRRCVRLHESCLGQQVPCCDPCATCYCRFFNAFCYCRKLGTAMNPCSRT; ends and bridges not checked; cysteine pairing not given here; UniProt O00253 83-132, looked up, fragment) [reference compound]
cumulative weight gain over the entire period, icv AGRP + H2O ([10]; 0.2 nmol icv days 1 and 3, water gavage, to day 5): above 30 grams
body weight gain after icv AgRP compared to saline controls [10, 13]: stimulated
food intake after icv AgRP compared to saline controls [10, 13]: stimulated
